Test results: paper PMC5531494, “Target specificity, in vivo pharmacokinetics, and efficacy of the putative STAT3 inhibitor LY5 in osteosarcoma, Ewing's sarcoma, and rhabdomyosarcoma” (PLoS ONE, 2017)

Molecular target: STAT3 (Homo sapiens, UniProt P40763)
Assay: IL-6 / OSM induced STAT3 phosphorylation in SJSA cells, Western blot
Type: cell-based
Design: endogenous in cells
Details: LY5 two hours then 50 ng/mL cytokine 30 minutes
Protocol: Cell lysis, protein isolation and immunoblotting were performed as described previously. Twenty micrograms of protein were resolved using 4–12% Bis-Tris polyacrylamide gels. Gels were transferred to PVDF membranes and subjected to blocking and incubation with primary and secondary antibodies. The primary antibodies used in this study included: phospho-STAT3 (Tyr705, Cell Signaling, Boston, MA and Abcam, Cambridge, MA), total STAT3 (Cell Signaling and Abcam), phospho-STAT1 (Cell Signaling), total STAT1 (Cell Signaling), phospho-STAT2 (Cell Signaling), phospho-STAT4 (Cell Signaling), phospho-STAT6 (Cell Signaling), and GAPDH (Cell Signaling). Protein bands were detected using Western Lightning ® Plus Enhanced Chemiluminescence substrate (Perkin Elmer, Waltham, MA) and HyBlot CL ® Autoradiography film (Denville Scientific, Holliston, MA). The cytokines used in this study included: interferon gamma (IFN-γ, Cell Signaling), interferon alpha (IFN-α, Cell Signaling), interleukin-4 (IL-4, Cell Signaling), interleukin-6 (IL-6, Cell Signaling), and oncostatin M (OSM, Cell Signaling).
Fig 1 LY5 inhibits pSTAT3 in sarcoma cell lines. (A) The tumor cell lines RH30, EW8, and RD were treated with increasing concentrations of LY5 for 30 minutes. Cell lysates were collected for Western blotting of p-STAT3, total STAT3, and GAPDH. GAPDH was used as loading control. […]

STAT3, sequence (P40763 whole entry): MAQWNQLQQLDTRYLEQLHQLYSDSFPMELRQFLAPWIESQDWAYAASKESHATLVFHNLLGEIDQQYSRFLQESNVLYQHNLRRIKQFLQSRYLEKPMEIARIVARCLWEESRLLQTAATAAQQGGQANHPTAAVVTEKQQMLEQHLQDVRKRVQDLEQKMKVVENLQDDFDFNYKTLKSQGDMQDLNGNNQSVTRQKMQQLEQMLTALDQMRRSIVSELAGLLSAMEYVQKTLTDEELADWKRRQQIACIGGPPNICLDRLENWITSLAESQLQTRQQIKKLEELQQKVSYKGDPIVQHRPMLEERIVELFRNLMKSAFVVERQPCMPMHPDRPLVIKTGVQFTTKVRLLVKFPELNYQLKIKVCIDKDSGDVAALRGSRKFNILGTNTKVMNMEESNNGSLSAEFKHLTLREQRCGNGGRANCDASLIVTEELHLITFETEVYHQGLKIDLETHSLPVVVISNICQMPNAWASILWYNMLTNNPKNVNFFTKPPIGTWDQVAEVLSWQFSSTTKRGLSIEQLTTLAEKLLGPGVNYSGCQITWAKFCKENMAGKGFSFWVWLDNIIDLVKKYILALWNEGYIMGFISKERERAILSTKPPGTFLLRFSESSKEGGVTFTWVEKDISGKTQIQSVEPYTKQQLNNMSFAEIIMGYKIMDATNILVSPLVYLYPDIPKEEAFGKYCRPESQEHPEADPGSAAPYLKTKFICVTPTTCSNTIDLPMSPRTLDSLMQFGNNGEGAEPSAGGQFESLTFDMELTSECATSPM

NS(=O)(=O)c1cccc2c1C(=O)C=C(Nc1cccnc1)C2=O [LY5, 5,8-dioxo-6-(pyridin-3-ylamino)-5,8-dihydronaphthalene-1-sulfonamide]
IL-6 and OSM induced STAT3 phosphorylation: effectively blocked
